A short description of assay [1]: Inhibition of Sporosarcina pasteurii CCM 2056 urease using urea as substrate after 10 mins by indophenol blue detection based phenol-hypochlorite method.
Assay [2] is described as follows: Mixed type inhibition of Sporosarcina pasteurii CCM 2056 urease using urea as substrate preincubated for 2 hrs by indophenol blue detection based phenol-hypochlorite method.
A further assay deals with Proteus mirabilis. Description: Antimicrobial activity against Proteus mirabilis PCM543 assessed as inhibition of microbial proliferation preincubated for 2 hrs by MTT assay. It counts as functional.
Assay [3] in a line: Inhibition of Proteus mirabilis PCM543 urease using urea as substrate preincubated for 2 hrs by indophenol blue detection based phenol-hypochlorite method.
Assay [4] can be described thus: Inhibition of Sporosarcina pasteurii CCM 2056 urease using urea as substrate preincubated for 2 hrs by indophenol blue detection based phenol-hypochlorite method.
Assay [5] deals with Sporosarcina pasteurii. Description: Slow binding inhibition of Sporosarcina pasteurii CCM 2056 urease assessed as dissociation rate constant using urea as substrate after 120 mins by indophenol blue detection based phenol-hypochlorite method.
For assay [6], the system named is Sporosarcina pasteurii. The experiment in a line: Slow binding inhibition of Sporosarcina pasteurii CCM 2056 urease assessed as residence time using urea as substrate after 120 mins by indophenol blue detection based phenol-hypochlorite method.

`COc1ccc(/C=C(\CCCP(=O)(O)O)C(=O)O)cc1`: the IC50 came out at 10 µM in assay [1], 39.7 µM in assay [3] and 4.98 µM in assay [4]. The Ki in assay [2] turned out to be 3.4 µM. Also, in the assay with Proteus mirabilis, the 50% lethal concentration (LC50) amounted to 65.2 µM.

Regarding `COC(=O)/C(=C/c1ccc(Cl)cc1)CCCCP(=O)(O)O`, the IC50 in assay [1] turned out to be 58.3 µM; in assay [3], 27.4 µM; in assay [4], 6.35 µM. Moreover, the K in the assay with Sporosarcina pasteurii [5] is 0.00206 s⁻¹. The TIME in the assay on Sporosarcina pasteurii [6] is 0.135 h. In assay [2], this compound showed a Ki of 4.71 µM. Also, the 50% lethal concentration (LC50) in the assay on Proteus mirabilis is 638 µM.

As to `O=C(O)/C(=C/c1ccc(Cl)cc1)CCCP(=O)(O)O`, the half-inhibitory concentration (IC50) in assay [1] amounted to 2.49 µM; in assay [3], 18.6 µM; in assay [4], 1.62 µM. The Ki in assay [2] is 1.43 µM. In the assay with Proteus mirabilis, the LC50 is 122 µM.

With `COC(=O)/C(=C/c1ccc(Cl)cc1)CCCP(=O)(O)O`, the IC50 in assay [1] worked out at 109 µM; in assay [3], 521 µM; in assay [4], 49.8 µM. Besides, in assay [2], the Ki is 42.5 µM. Moreover, the LC50 in the assay with Proteus mirabilis was 89.6 µM.

For the compound `COC(=O)/C(=C/c1ccc(C)cc1)CCCCP(=O)(O)O`, the IC50 is 294 µM in assay [1], 1550 µM in assay [3] and 261 µM in assay [4]. Further, the affinity in assay [2], expressed as Ki, was 219 µM. Moreover, the LC50 with Proteus mirabilis turned out to be 659 µM.

For `Cc1ccc(/C=C(\CCCCP(=O)(O)O)C(=O)O)cc1`, the half-inhibitory concentration (IC50) in assay [1] is 9.24 µM; in assay [3], 52.6 µM; in assay [4] it was 8.53 µM. The compound also came in with a Ki in assay [2] of 7.21 µM. The 50% lethal concentration (LC50) in the assay on Proteus mirabilis is 49.8 µM.

`COC(=O)/C(=C/c1ccc(OC)cc1)CCCCP(=O)(O)O`: the values for the IC50 in assay [1], in assay [3] and in assay [4] were 24.5 µM, 162 µM and 22.6 µM, respectively. Also, the Ki in assay [2] amounted to 21.4 µM. Besides, the median lethal concentration (LC50) in the assay on Proteus mirabilis came to 160 µM.

`COc1ccc(/C=C(\CCCCP(=O)(O)O)C(=O)O)cc1`: the values for the concentration for half-maximal inhibition (IC50) in assay [1], in assay [3] and in assay [4] were 16.6 µM, 114 µM and 14.5 µM, respectively. The same compound had an inhibition constant Ki in assay [2] of 9.31 µM. Further, the 50% lethal concentration (LC50) with Proteus mirabilis came out at 28.6 µM.

Take `COC(=O)/C(=C/c1ccc(F)cc1)CCCP(=O)(O)O`: the IC50 in assay [1] came to 221 µM; in assay [3] it was 735 µM; in assay [4], 105 µM. This compound also showed a Ki in assay [2] of 87.2 µM. Further, the LC50 with Proteus mirabilis was 215 µM.

As to `O=C(O)/C(=C/c1ccc(Cl)cc1)CCCCP(=O)(O)O`, the results for the concentration for half-maximal inhibition (IC50) in assay [1], in assay [3] and in assay [4] were 5.83 µM, 22.2 µM and 2.34 µM, respectively. This compound came in with a Ki in assay [2] of 1.75 µM. For the same compound, the LC50 in the assay with Proteus mirabilis is 435 µM.

With `COC(=O)/C(=C/c1ccc(OC)cc1)CCCP(=O)(O)O`, the concentration for half-maximal inhibition (IC50) in assay [1] worked out at 35.3 µM; in assay [3], 75.1 µM; in assay [4], 10.8 µM. The K in the assay with Sporosarcina pasteurii [5] stood at 0.00244 s⁻¹. For the same compound, the TIME in the assay with Sporosarcina pasteurii [6] was 0.114 h. In assay [2], this compound had a Ki of 6.04 µM. The 50% lethal concentration (LC50) with Proteus mirabilis came to 236 µM.

Regarding `COC(=O)/C(=C/c1ccccc1)CCCP(=O)(O)O`, the half-inhibitory concentration (IC50) in assay [1] was 449 µM; in assay [3], 1590 µM; in assay [4], 328 µM. This compound displayed a Ki in assay [2] of 289 µM. Also, in the assay with Proteus mirabilis, the LC50 turned out to be 556 µM.

As for `O=C(O)/C(=C/c1ccc(F)cc1)CCCCP(=O)(O)O`, the IC50 in assay [1] was determined as 9.98 µM; in assay [3], 14.1 µM; in assay [4] it was 2.91 µM. Further, the K in the assay with Sporosarcina pasteurii [5] was 0.00135 s⁻¹. For the same compound, the TIME in the assay with Sporosarcina pasteurii [6] was 0.206 h. In assay [2], this compound showed an inhibition constant (Ki) of 2.58 µM. For the same compound, the LC50 with Proteus mirabilis stood at 192 µM.

Regarding `COC(=O)/C(=C/c1ccc(C)cc1)CCCP(=O)(O)O`, the IC50 in assay [1] was found to be 265 µM; in assay [3] it was 1430 µM; in assay [4], 248 µM. Also, the affinity in assay [2], expressed as Ki, was 227 µM. Also, the median lethal concentration (LC50) in the assay with Proteus mirabilis was found to be 292 µM.

As to `Cc1ccc(/C=C(\CCCP(=O)(O)O)C(=O)O)cc1`, the results for the half-inhibitory concentration (IC50) in assay [1], in assay [3] and in assay [4] were 30 µM, 156 µM and 24.6 µM, respectively. Besides, in assay [2], the Ki came out at 19.4 µM. In addition, the LC50 in the assay on Proteus mirabilis stood at 139 µM.

For `COC(=O)/C(=C/c1ccccc1)CCCCP(=O)(O)O`, the IC50 in assay [1] is 55 µM; in assay [3] it was 476 µM; in assay [4], 54 µM. The compound further showed an inhibitory constant (Ki) in assay [2] of 50.5 µM. In addition, in the assay on Proteus mirabilis, the 50% lethal concentration (LC50) amounted to 469 µM.

For `O=C(O)/C(=C/c1ccccc1)CCCP(=O)(O)O`, the IC50 in assay [1] was determined as 3.1 µM; in assay [3], 11 µM; in assay [4], 0.743 µM. Besides, the K in the assay with Sporosarcina pasteurii [5] is 0.000682 s⁻¹. Moreover, the TIME in the assay with Sporosarcina pasteurii [6] amounted to 0.407 h. In assay [2], this compound came in with an inhibition constant Ki of 0.509 µM. Moreover, in the assay on Proteus mirabilis, the LC50 came out at 135 µM.

Regarding `O=C(O)/C(=C/c1ccc(F)cc1)CCCP(=O)(O)O`, the IC50 came out at 4.9 µM in assay [1], 38 µM in assay [3] and 3.82 µM in assay [4]. For the same compound, the Ki in assay [2] turned out to be 1.8 µM. In addition, the 50% lethal concentration (LC50) in the assay on Proteus mirabilis was found to be 121 µM.

For the compound `O=C(O)/C(=C/c1ccccc1)CCCCP(=O)(O)O`, the IC50 in assay [1] is 4.89 µM; in assay [3], 32.6 µM; in assay [4] it was 3.83 µM. The same compound showed a Ki in assay [2] of 3.51 µM. In addition, in the assay with Proteus mirabilis, the LC50 came to 97.6 µM.

For `COC(=O)/C(=C/c1ccc(F)cc1)CCCCP(=O)(O)O`, the IC50 is 164 µM in assay [1], 630 µM in assay [3] and 130 µM in assay [4]. In addition, the inhibition constant (Ki) in assay [2] turned out to be 116 µM. The LC50 in the assay with Proteus mirabilis was found to be 1060 µM.

Source of the values: ChEMBL document CHEMBL4265986, “Structural exploration of cinnamate-based phosphonic acids as inhibitors of bacterial ureases” (Eur J Med Chem, 2018).
